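1) Cells in 96-well plates. 2) Compound, 48 h, 5 concentrations. 3) Linear interpolation between surrounding doses. 4) Unreached endpoint = highest concentration. GI50: concentration for 50% inhibition of growth.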 The source made the active and inactive calls. Rule as the data show it: active = GI50 up to about 1.1 µM and inactive = higher.
Tests used:
Assay in all cases: DTP human tumour cell line panel, 48 h
K562 = tested on: K562
M14 = tested on: M14
KM12 = tested on: KM12
UO-31 = tested on: UO-31
MDA-MB-435 = tested on: MDA-MB-435
SNB-75 = tested on: SNB-75
SK-MEL-5 = tested on: SK-MEL-5
SW-620 = tested on: SW-620
OVCAR-8 = tested on: OVCAR-8
HCT-15 = tested on: HCT-15
SF-295 = tested on: SF-295
OVCAR-4 = tested on: OVCAR-4
SR = tested on: SR
SNB-19 = tested on: SNB-19
U-251 = tested on: U-251
T47D = tested on: T47D
Malme-3M = tested on: Malme-3M
UACC-62 = tested on: UACC-62
RXF 393 = tested on: RXF 393
A549 = tested on: A549

| SMILES | GI50 (K562) | GI50 (M14) | GI50 (KM12) | GI50 (UO-31) | GI50 (MDA-MB-435) | GI50 (SNB-75) | GI50 (SK-MEL-5) | GI50 (SW-620) | GI50 (OVCAR-8) | GI50 (HCT-15) [µM] | GI50 (SF-295) | GI50 (OVCAR-4) | GI50 (SR) | GI50 (SNB-19) | GI50 (U-251) | GI50 (T47D) | GI50 (Malme-3M) | GI50 (UACC-62) | GI50 (RXF 393) | GI50 (A549) |
| --- | --- | --- | --- | --- | --- | --- | --- | --- | --- | --- | --- | --- | --- | --- | --- | --- | --- | --- | --- | --- |
| O=S(=O)(N=[Se](=O)(c1ccccc1)c1ccccc1)c1ccccc1 | > 100 µM (inactive) | > 100 µM (inactive) | > 100 µM (inactive) | 58.1 µM (inactive) | > 100 µM (inactive) | > 100 µM (inactive) | > 100 µM (inactive) | > 100 µM (inactive) | > 100 µM (inactive) | > 100 | > 100 µM (inactive) | > 100 µM (inactive) | > 100 µM (inactive) | 60 µM (inactive) | > 100 µM (inactive) | > 100 µM (inactive) | – | – | – | – |
| Oc1nc2c(c(-c3ccc(Br)cc3)n1)COC/C2=C\c1ccc(Br)cc1 | > 50 µM (inactive) | > 50 µM (inactive) | > 50 µM (inactive) | > 50 µM (inactive) | 29.4 µM (inactive) | > 50 µM (inactive) | > 50 µM (inactive) | > 50 µM (inactive) | > 50 µM (inactive) | > 50 | > 50 µM (inactive) | > 50 µM (inactive) | – | > 50 µM (inactive) | > 50 µM (inactive) | > 50 µM (inactive) | > 50 µM (inactive) | > 50 µM (inactive) | > 50 µM (inactive) | – |
| O=C(O[C@H](/C=C/c1ccccc1)P1(=O)N(Cc2ccccc2)[C@@H]2CCCC[C@H]2N1Cc1ccccc1)c1ccccc1 | 3.24 µM (inactive) | 4.11 µM (inactive) | 3.24 µM (inactive) | 4.5 µM (inactive) | 3.63 µM (inactive) | – | 1.86 µM (inactive) | 3.57 µM (inactive) | 3.95 µM (inactive) | 2.91 | 3.79 µM (inactive) | 1.79 µM (inactive) | 3.44 µM (inactive) | 6.5 µM (inactive) | 3.26 µM (inactive) | 0.875 µM (active) | 2.49 µM (inactive) | 4.86 µM (inactive) | – | 3.66 µM (inactive) |
| [N-]=[N+]=NI1OC(=O)c2ccccc21 | 36.6 µM (inactive) | > 100 µM (inactive) | > 100 µM (inactive) | > 100 µM (inactive) | 67.3 µM (inactive) | > 100 µM (inactive) | – | 65.3 µM (inactive) | > 100 µM (inactive) | 50.7 | > 100 µM (inactive) | > 100 µM (inactive) | 38.7 µM (inactive) | > 100 µM (inactive) | 92.9 µM (inactive) | > 100 µM (inactive) | – | > 100 µM (inactive) | 32.2 µM (inactive) | > 100 µM (inactive) |
| C=CC(Cl)(CBr)CCC(Br)C(C)(C)Cl (centres undefined) | 14.9 µM (inactive) | 13.6 µM (inactive) | – | 15.4 µM (inactive) | 14.2 µM (inactive) | 19.2 µM (inactive) | 13.1 µM (inactive) | 12.6 µM (inactive) | 15.6 µM (inactive) | 18.3 | 14.8 µM (inactive) | 16.6 µM (inactive) | – | 16.7 µM (inactive) | 14.4 µM (inactive) | 16.6 µM (inactive) | 18.7 µM (inactive) | 12.7 µM (inactive) | 17.4 µM (inactive) | 31.3 µM (inactive) |
| CC(C)C1OC23CCCCC2C(C#N)(C#N)C1(C#N)C(=N)O3 (centres undefined) | 8.61 µM (inactive) | 12.8 µM (inactive) | > 10 µM (inactive) | 32.7 µM (inactive) | 23.7 µM (inactive) | 28.4 µM (inactive) | 16.8 µM (inactive) | 13.7 µM (inactive) | 20.2 µM (inactive) | 9.46 | 49.9 µM (inactive) | – | – | 34.3 µM (inactive) | 17.4 µM (inactive) | 17.6 µM (inactive) | 16.8 µM (inactive) | 20.6 µM (inactive) | 20.5 µM (inactive) | 71.8 µM (inactive) |
| O=c1ccc2c(Cl)sc(Cl)c2[nH]1 | > 100 µM (inactive) | > 100 µM (inactive) | > 100 µM (inactive) | > 100 µM (inactive) | > 100 µM (inactive) | > 100 µM (inactive) | – | > 100 µM (inactive) | > 100 µM (inactive) | > 100 | > 100 µM (inactive) | > 100 µM (inactive) | – | > 100 µM (inactive) | > 100 µM (inactive) | > 100 µM (inactive) | 43.8 µM (inactive) | > 100 µM (inactive) | > 100 µM (inactive) | > 100 µM (inactive) |
| Cc1ccc(/N=N/C(=N/NC(=O)c2cc(Cl)ccc2C(=O)c2ccccc2)c2ccc(N(CCC#N)CCC#N)cc2C)cc1 | 17.4 µM (inactive) | 11.8 µM (inactive) | 10.9 µM (inactive) | 22.4 µM (inactive) | 18.7 µM (inactive) | 18.2 µM (inactive) | 14 µM (inactive) | 21.2 µM (inactive) | 11 µM (inactive) | 7.55 | 14.9 µM (inactive) | 10.4 µM (inactive) | – | 33.2 µM (inactive) | 8.02 µM (inactive) | 3.81 µM (inactive) | 15.7 µM (inactive) | 12.9 µM (inactive) | 0.0957 µM (active) | 11.5 µM (inactive) |
| CN(C)CCC(C#N)(c1ccccc1)c1ccccc1 | 4.06 µM (inactive) | 25.9 µM (inactive) | > 100 µM (inactive) | 65.9 µM (inactive) | > 100 µM (inactive) | 52.6 µM (inactive) | 24.7 µM (inactive) | > 100 µM (inactive) | 96.2 µM (inactive) | > 100 | 90.6 µM (inactive) | > 100 µM (inactive) | – | > 100 µM (inactive) | 88.9 µM (inactive) | 97.9 µM (inactive) | 35.1 µM (inactive) | 73.3 µM (inactive) | 40 µM (inactive) | > 100 µM (inactive) |
| O=c1c(C(c2cccnc2)c2c(O)oc3cc(O)ccc3c2=O)c(O)oc2cc(O)ccc12 | > 100 µM (inactive) | > 100 µM (inactive) | > 100 µM (inactive) | > 100 µM (inactive) | > 100 µM (inactive) | > 100 µM (inactive) | > 100 µM (inactive) | > 100 µM (inactive) | > 100 µM (inactive) | > 100 | > 100 µM (inactive) | – | > 100 µM (inactive) | > 100 µM (inactive) | > 100 µM (inactive) | > 100 µM (inactive) | – | > 100 µM (inactive) | > 100 µM (inactive) | > 100 µM (inactive) |
| O=C(O)c1c(Cl)c(Cl)c(Cl)c(Cl)c1C(=O)Nc1ccc2cn[nH]c2c1 | 97.3 µM (inactive) | > 100 µM (inactive) | 62.1 µM (inactive) | > 100 µM (inactive) | > 100 µM (inactive) | 74.8 µM (inactive) | > 100 µM (inactive) | > 100 µM (inactive) | > 100 µM (inactive) | > 100 | > 100 µM (inactive) | > 100 µM (inactive) | – | > 100 µM (inactive) | > 100 µM (inactive) | 74.3 µM (inactive) | > 100 µM (inactive) | > 100 µM (inactive) | > 100 µM (inactive) | > 100 µM (inactive) |
